Reference: article PMC3355094 (PLoS Pathogens, 2012)

How the values were obtained:
A. aegypti larvae = assay: Biotoxicity assay with recombinant E. coli; type: in vivo, Aedes aegypti; conditions: CCL2-expressing E. coli vs vector control
[1] = Isothermal titration calorimetry, CCL2 wild type and variants binding to fucosylated chitobiose
Experimental: ITC experiments were performed on a VP-ITC instrument (MicroCal). The calorimeter was calibrated according to the manufacturer's instructions. Protein and carbohydrate samples were dialyzed against NMR buffer at room temperature using a 3.5 kDa membrane (Spectra/Por) and Micro DispoDialyzer (100 Da cutoff; Harvard Apparatus), respectively. The disaccharide Fucα1,3GlcNAc-OMe was not dialyzed but dissolved in NMR buffer. The sample cell (1.4 mL) was loaded with 70 µM protein; carbohydrate concentration in the syringe was 2–4 mM. A titration experiment typically consisted of 30–50 injections, each of 3 µL volume and 6 s duration, with a 6.7 min interval between additions. Stirring rate was 307 rpm. Raw data were integrated, corrected for nonspecific heats, normalized for the molar concentration, and analyzed according to a 1∶1 binding model.

C. elegans bre-1(ye4) = assay: C. elegans liquid toxicity assay, feeding on recombinant E. coli; type: in vivo, Caenorhabditis elegans; conditions: bre-1(ye4) mutant, vs vector control
C. elegans fut-1(ok892) [2] = assay: CCL2 nematotoxicity assay in solid media; type: in vivo, Caenorhabditis elegans
C. elegans wildtype (N2) = assay: C. elegans liquid toxicity assay, feeding on recombinant E. coli; type: in vivo, Caenorhabditis elegans
A. castellanii = assay: Biotoxicity assay with recombinant E. coli; type: in vivo, Acanthamoeba castellanii; conditions: CCL2-expressing E. coli vs vector control
D. melanogaster = assay: Biotoxicity assay with purified protein added to the rearing medium; type: in vivo, Drosophila melanogaster
[3] = test system: C. elegans fut-6(ok475)fut-1(ok892); assay: C. elegans liquid toxicity assay, feeding on recombinant E. coli; type: in vivo, Caenorhabditis elegans; conditions: fut-6(ok475)fut-1(ok892) double mutant, vs vector control
C. elegans fut-1(ok892) [4] = assay: as above; type: in vivo, Caenorhabditis elegans; conditions: fut-1(ok892) mutant
Y57A = molecular target: T1, Y57A (Coprinopsis cinerea, UniProt B3GA02, Y57A); assay: biochemical; type: binding
T1 construct: gene ccl2

Y92A = molecular target: T2, Y92A (Coprinopsis cinerea, UniProt B3GA02, Y92A); assay: biochemical; type: binding
T2 construct: gene ccl2

N90A = molecular target: T3, N90A (Coprinopsis cinerea, UniProt B3GA02, N90A); assay: biochemical; type: binding
T3 construct: gene ccl2

L87A = molecular target: T4, L87A (Coprinopsis cinerea, UniProt B3GA02, L87A); assay: biochemical; type: binding
T4 construct: gene ccl2

W78A = molecular target: T5, W78A (Coprinopsis cinerea, UniProt B3GA02, W78A); assay: biochemical; type: binding
T5 construct: gene ccl2

V93A = molecular target: T6, V93A (Coprinopsis cinerea, UniProt B3GA02, V93A); assay: biochemical; type: binding
T6 construct: gene ccl2

N91A = molecular target: T7, N91A (Coprinopsis cinerea, UniProt B3GA02, N91A); assay: biochemical; type: binding
T7 construct: gene ccl2

K109A = molecular target: T8, K109A (Coprinopsis cinerea, UniProt B3GA02, K109A); assay: biochemical; type: binding
T8 construct: gene ccl2

W94A = molecular target: T9, W94A (Coprinopsis cinerea, UniProt B3GA02, W94A); assay: biochemical; type: binding
T9 construct: gene ccl2

[5] = ITC, 299K, protein binding to GlcNAcβ1,4[Fucα1,3]GlcNAcβ1-sp
[6] = ITC, 299K, protein binding to GlcNAcβ1,4[Fucα1,3]GlcNAcβ1-sp, listed as Wild type
[7] = Table S6, ligand GlcNAc1,4[Fuc1,3]GlcNAc-O-spacer, This study
[8] = purified CCL2, relative to the control (BSA)

T8 sequence (B3GA02 2-142 K109A limits assumed): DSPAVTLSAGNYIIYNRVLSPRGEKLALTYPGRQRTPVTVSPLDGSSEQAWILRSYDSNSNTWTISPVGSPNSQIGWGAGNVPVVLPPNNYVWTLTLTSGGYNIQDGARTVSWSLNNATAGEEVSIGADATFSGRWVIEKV
T4 sequence (B3GA02 2-142 L87A limits assumed): as the sequence (B3GA02 2-142 K109A limits assumed) above, with L86A, A108K counted along it
T3 sequence (B3GA02 2-142 N90A limits assumed): as the sequence (B3GA02 2-142 K109A limits assumed) above, with N89A, A108K counted along it
T1 sequence (B3GA02 2-142 Y57A limits assumed): as the sequence (B3GA02 2-142 K109A limits assumed) above, with Y56A, A108K counted along it
T7 sequence (B3GA02 2-142 N91A limits assumed): as the sequence (B3GA02 2-142 K109A limits assumed) above, with N90A, A108K counted along it
T2 sequence (B3GA02 2-142 Y92A limits assumed): as the sequence (B3GA02 2-142 K109A limits assumed) above, with Y91A, A108K counted along it
T5 sequence (B3GA02 2-142 W78A limits assumed): as the sequence (B3GA02 2-142 K109A limits assumed) above, with W77A, A108K counted along it
T9 sequence (B3GA02 2-142 W94A limits assumed): as the sequence (B3GA02 2-142 K109A limits assumed) above, with W93A, A108K counted along it
T6 sequence (B3GA02 2-142 V93A limits assumed): as the sequence (B3GA02 2-142 K109A limits assumed) above, with V92A, A108K counted along it

CCL2: novel fruiting body lectin from the ink cap mushroom Coprinopsis cinerea, recombinant, monomeric β-trefoil
toxicity (A. aegypti larvae): No significant differences
Kd [1, 5]: 1.4 µM
ΔH [1, 5]: -12 kcal/mol
−TΔS [1, 5]: 3.82 kcal/mol
ΔH [1, 6]: -11.9 kcal/mol
−TΔS [1, 6]: 3.9 kcal/mol
–TΔS [1, 7]: 3.9 kcal/mol
–ΔH [1, 7]: 11.9 kcal/mol
susceptibility to CCL2-mediated toxicity (C. elegans bre-1(ye4)): not and completely resistant
additional time required to reach L4 (C. elegans fut-1(ok892) [2]): at least 24 h
resistance to CCL2 (C. elegans fut-1(ok892) [2]): partial resistance
reduction of development of L1 larvae (C. elegans wildtype (N2); 30% of CCL2-expressing E. coli among the fed bacteria): more than 95%
toxicity: development of L1 larvae vs vector control (C. elegans wildtype (N2); N2 fed E. coli expressing the lectin, L4 stage after 48 h): stopped the development of all wildtype (N2) L1 larvae
toxicity (A. castellanii): No significant differences
development of pupae and flies vs control (D. melanogaster; purified CCL2, BSA control): significantly different from the control
delay in development of flies (D. melanogaster; [8]): 10 fold
delay in development of pupae (D. melanogaster; [8]): 4 fold
susceptibility to CCL2-mediated toxicity [3]: not and completely resistant
larvae reaching L4 stage (C. elegans fut-1(ok892) [4]; after 48 hours): half
susceptibility to CCL2-mediated toxicity (C. elegans fut-1(ok892) [4]; vs vector control): partially resistant

CC(=O)N[C@H]1[C@H](O[C@H]2[C@H](O[C@@H]3O[C@@H](C)[C@@H](O)[C@@H](O)[C@@H]3O)[C@@H](NC(C)=O)[C@H](OCCCCCC(=O)O)O[C@@H]2CO)O[C@H](CO)[C@@H](O)[C@@H]1O [GlcNAcβ1,4[Fucα1,3]GlcNAcβ1-sp, fucosylated chitobiose, GlcNAcβ1,4[Fucα1,3]GlcNAcβ-O(CH2)5COOH]
Kd (Y57A): 10.9 µM
Kd (Y92A): > 500 µM
Kd (N90A): 6.7 µM
Kd (L87A): 26.3 µM
Kd (W78A): 62.9 µM
Kd (V93A): 27.2 µM
Kd (N91A): 0.18 µM
Kd (K109A): 1.5 µM
Kd (W94A): 310 µM
